How the values were obtained:
[1] = biological target: T1, GST-tagged KRAS-G12D (2-169) (Homo sapiens, UniProt P01116, G12D); assay: Nucleotide exchange assay (NEA), SOS-mediated, HTRF, KRAS G12D; assay type: biochemical; conditions: Table 4; IC50 extracted at 30 min
T1 construct: GST-tagged KRAS-G12D (2-169, Reaction Biology, MSC-11-539); purchased Reaction Biology MSC-11-539 (KRAS G12D); MSC-11-502 (SOS1cat)
Source text: This activity is tightly regulated by GTPase activating proteins (GAPs) and guanine nucleotide exchange factors (GEFs). GEFs, such as SOS1/2, activate Ras proteins by exchanging GDP for GTP, thus returning Ras to its active conformation (Simanshu, Nissley, & McCormick, 2017). […] Homogenous time resolved fluorescence (HTRF) was used to detect SOS-mediated binding of a fluorescent GTP analog, GTP-DY-647P1 (Jena Biosciences NU-820-647P1) to GST-tagged KRAS-G12D (2-169, Reaction Biology, MSC-11-539) or to GST-tagged KRAS-G12V (2-169, Reaction Biology, MSC-11-540).
GST-tagged KRAS-G12D (2-169) and anti-GST MAb Tb Cryptate Gold (CisBio 61GSTTLB) were diluted into assay buffer (20 mM HEPES, pH 7.3, 150 mM NaCl, 5 mM MgCl2, 0.05% BSA 0.0025% NP40, 1 mM DTT) to prepare a 2.5× donor solution. 5× compound was added to the protein mixture and incubated for 1 h at RT. 2.5× acceptor solution containing SOSIcat (564-1049, Reaction Biology MSC-11-502) and GTP-DY-647P1 were then added to the donor KRAS mixture such that the final concentration of the reaction contained 5 nM GST-tagged KRAS-G12D (2-169), 20 nM SOScat, and 150 nM GTP. The reaction was monitored using at RT with the Envision multimode plate reader (Ex/Em 337/665, […]) up to 90 minutes at 5 minute intervals. To monitor KRAS-G12V Sos-mediated nucleotide exchange, 80 nM SOS was added to reaction instead of 20 nM. All other components were the same as previously described. Data was blanked to reactions without SOS1 and % inhibition was calculated such that DMSO only=0% and blank=100%. Curve fitting was done using a 4 parameter fit. Reported IC50 values were extracted at 30 min and 90 min for the KRAS-G12D and KRAS-G12V assays, respectively.
Curve fitting was done using a 4 parameter fit. NEA KRAS G12D IC50 (uM) values of selected compounds are depicted in Table 2 with compounds having a value <0.01 uM as ++++; >0.01 uM to 0.1 uM as +++; >0.1 uM to 1 uM as ++; >1 uM to 20 uM as +; and >20 uM as NA.

KRAS G12D/RAF1 = biological target: T2, KRAS G12D/RAF1 (Homo sapiens, UniProt P01116, G12D); assay: Protein-protein interaction (PPI) HTRF assay KRAS G12D/RAF1; assay type: binding; conditions: Table 4
T2 construct: His6-MBP (N, cleaved yes); made in house; host or cells: E. coli
Description: Biotinylated KRAS wt and KRAS G12DNV proteins were expressed and purified in conditions similar to those previously reported (Tran, et al., 2021) (Zhang, et al., 2020). Briefly, KRAS (1-169) proteins were expressed in E. coli at 18° C. with an upstream TEV cleavage site (ENLFYQS (SEQ ID NO: 6)) followed an Avi tag sequence ([…] (SEQ ID NO: 7)). KRAS expression constructs contained both a His6 (SEQ ID NO: 8) and maltose-binding protein (MBP) tags at the N-terminus for Ni-NTA column purification prior to overnight TEV cleavage and MBP column purification. The avi-tagged NRAS expression construct contained both a His6 tag (SEQ ID NO: 8) and SUMO cleavage sige at the N-terminus for Ni-NTA column purification followed by His-ULPi digestion overnight. All avi-tagged RAS proteins were dialyzed into buffer containing ATP, biotin, and BirA followed by purification over a second Ni-NTA column and then run over a size exclusion HiLoad™ 26/600 Superdex™ column in 20 mM HEPES, pH 7.5, 300 mM NaCl, 5 mM MgCl2, and 1 mM TCEP. Fractions containing the protein of interest were pooled, concentrated, and confirmed by intact mass spectrometry. To prepare ‘GTP’ loaded KRAS and NRAS, biotinylated KRAS or NRAS was nucleotide exchanged from GDP-bound protein to GppNHp-bound (Jena Biosciences, NU-401-50) protein in the presence of alkaline phosphatase and excess GppNHp as previously described and the resulting nucleotide content was confirmed by HPLC reverse phase analytical chromatography (Donohue, et al., 2019) (Tran, et al., 2021).
His-tagged RAF1 (52-131) was similarly expressed in E. coli at 18° C. overnight with an upstream TEV cleavage site. His-tagged RAF1 expression construct contained both a His6 (SEQ ID NO: 8) and MBP tags at the N-terminus for Ni-NTA column purification followed by MBP-tagged TEV digestion overnight. RAF1 protein samples were further purified over a MBP column followed by a Ni-NTA column and a second MBP column. The fractions containing the protein of interest were pooled, concentrated, and further purified over a HiLoad™ 16/600 Superdex™ 75 pg size exclusion column into 20 mM HEPES, pH8.0, 200 mM NaCl, 5 mM TCEP.
When RAS proteins are in the active GTP-bound conformation, they bind the effector protein RAF1 at the N-terminus Ras-binding domain (RBD, residues 52-131) (Tran, et al., 2021). Homogenous time resolved fluorescence (HTRF) was used to monitor the interaction between wt or mutant KRAS and RAF1 or wt NRAS and RAFT. Compounds were assayed in the presence of KRAS G12D/V and RAF1 versus wt KRAS to assess activity against mutant and w.t. KRAS. Similarly, compounds were then assayed in the presence of w.t. NRAS and RAF1 to assess RAS isoform selectivity. In all assay formats, His-tagged RAF1 protein was incubated with the HTRF donor, anti-6His (“6His” disclosed as SEQ ID NO: 8) Tb Cryptate gold (Cisbio 61DB10RDF), and biotinylated RAS proteins were incubated with the HTRF acceptor, streptavidin-d2 (CisBio 610SADLA). The intensity of the fluorescence signal emitted is proportional to binding between the two proteins. The donor solution was prepared by mixing 16 nM His-tagged RAF1 in protein dilution buffer with 1:100 anti-6His (“6His” disclosed as SEQ ID NO: 8) Tb cryptate in PPI-Terbium detection buffer. 16 nM biotinylated RAS protein was diluted into protein dilution buffer (50 mM Tris-HCl pH 7.5, 150 mM NaCl, 0.1 mM MgCl2, 1 mM TCEP, 0.005% Tween20) and mixed with 1:2000 Streptavidin-d2 diluted in PPI-Terbium detection buffer (CisBio 61DBTORDF). 50× compound in DMSO was mixed with 16 nM KRAS-acceptor solution and incubated for 30 minutes at room temperature. After compound pre-incubation with KRAS, the RAF1 donor solution was added to the KRAS-acceptor solution and incubated for 1 hour at room temperature. The fluorescence signal emitted was monitored at 665 nm and 615 nm using an Envision multimode plate reader. […]

T2 sequence (P01116 with tags, fused parts or gaps isoform P01116-2 G12D): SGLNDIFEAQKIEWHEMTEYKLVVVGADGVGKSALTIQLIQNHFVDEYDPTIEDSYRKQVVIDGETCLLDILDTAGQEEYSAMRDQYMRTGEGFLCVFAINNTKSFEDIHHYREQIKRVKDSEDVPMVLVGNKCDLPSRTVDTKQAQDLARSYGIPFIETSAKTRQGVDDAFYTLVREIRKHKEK
T1 sequence (P01116 2-169 isoform P01116-2 G12D): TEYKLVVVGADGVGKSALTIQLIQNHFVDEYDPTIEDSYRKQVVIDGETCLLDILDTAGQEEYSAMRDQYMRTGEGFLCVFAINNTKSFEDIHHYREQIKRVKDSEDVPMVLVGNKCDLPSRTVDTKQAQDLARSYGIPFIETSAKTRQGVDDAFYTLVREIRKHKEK

SMILES: N#Cc1c(N2CCn3nncc3C2)nc(OC[C@@]23CCCN2C[C@H](F)C3)nc1N1CC2(CCc3sc(N)c(C#N)c32)C1 [Compound 55, 2-amino-1′-[5-cyano-6-(6,7-dihydro-4H-triazolo[1,5-a]pyrazin-5-yl)-2-[[(2R,8S)-2-fluoro-1,2,3,5,6,7-hexahydropyrrolizin-8-yl]methoxy]pyrimidin-4-yl]spiro[5,6-dihydrocyclopenta[b]thiophene-4,3′-azetidine]-3-carbonitrile]
- IC50 [1]: 100 to 1000 nM
- IC50 (KRAS G12D/RAF1): 10000 to 100000 nM

SMILES: N#Cc1c(N2C[C@H]3CC[C@@H](C2)N3)nc(OCC2(CN3CCC(F)(F)CC3)CC2)nc1N1CC2(CCCc3sc(N)c(C#N)c32)C1 [Compound 56, 2-amino-1′-[5-cyano-6-[(1R,5S)-3,8-diazabicyclo[3.2.1]octan-3-yl]-2-[[1-[(4,4-difluoro-1-piperidyl)methyl]cyclopropyl]methoxy]pyrimidin-4-yl]spiro[6,7-dihydro-5H-benzothiophene-4,3′-azetidine]-3-carbonitrile]
- IC50 [1]: < 10 nM
- IC50 (KRAS G12D/RAF1): 100 to 1000 nM

SMILES: CN1CCc2c(cccc2Oc2nc(N3C[C@H]4CC[C@@H](C3)N4)c(C#N)c(N3CC4(CCc5sc(N)c(C#N)c54)C3)n2)C1 [Compound 57, 2-amino-1′-[5-cyano-2-[(2-methyl-3,4-dihydro-1H-isoquinolin-5-yl)oxy]-6-[(1R,5S)-3,8-diazabicyclo[3.2.1]octan-3-yl]pyrimidin-4-yl]spiro[5,6-dihydrocyclopenta[b]thiophene-4,3′-azetidine]-3-carbonitrile]
- IC50 [1]: 1000 to 20000 nM
- IC50 (KRAS G12D/RAF1): 10000 to 100000 nM

SMILES: N#Cc1c(N2C[C@H]3CC[C@@H](C2)N3)nc(OCC2(CN3CCC(F)(F)C3)CC2)nc1N1CC2(CCc3sc(N)c(C#N)c32)C1 [Compound 58, 2-amino-1′-[5-cyano-6-[(1R,5S)-3,8-diazabicyclo[3.2.1]octan-3-yl]-2-[[1-[(3,3-difluoropyrrolidin-1-yl)methyl]cyclopropyl]methoxy]pyrimidin-4-yl]spiro[5,6-dihydrocyclopenta[b]thiophene-4,3′-azetidine]-3-carbonitrile]
- IC50 [1]: < 10 nM
- IC50 (KRAS G12D/RAF1): 1000 to 10000 nM

SMILES: CO/N=C1/CCCN(c2nc(OC[C@@]34CCCN3C[C@H](F)C4)nc(N3CC4(CCc5sc(N)c(C#N)c54)C3)c2C#N)CC1 [Compound 59, 2-amino-1′-[5-cyano-2-[[(2R,8S)-2-fluoro-1,2,3,5,6,7-hexahydropyrrolizin-8-yl]methoxy]-6-[(4Z)-4-methoxyiminoazepan-1-yl]pyrimidin-4-yl]spiro[5,6-dihydrocyclopenta[b]thiophene-4,3′-azetidine]-3-carbonitrile]
- IC50 [1]: 100 to 1000 nM
- IC50 (KRAS G12D/RAF1): 10000 to 100000 nM

SMILES: Cc1nnc(-c2nn3c(c2Cl)CN(c2nc(OC[C@@]45CCCN4C[C@H](F)C5)nc(N4CC5(CCc6sc(N)c(C#N)c65)C4)c2C#N)CCC3)n1C [Compound 60, 2-amino-1′-[6-[3-chloro-2-(4,5-dimethyl-1,2,4-triazol-3-yl)-4,6,7,8-tetrahydropyrazolo[1,5-a][1,4]diazepin-5-yl]-5-cyano-2-[[(2R,8S)-2-fluoro-1,2,3,5,6,7-hexahydropyrrolizin-8-yl]methoxy]pyrimidin-4-yl]spiro[5,6-dihydrocyclopenta[b]thiophene-4,3′-azetidine]-3-carbonitrile]
- IC50 [1]: < 10 nM
- IC50 (KRAS G12D/RAF1): 1000 to 10000 nM

SMILES: N#Cc1c(N2C[C@H]3CC[C@@H](C2)[C@@H]3N)nc(OCC2(CN3CCOCC3)CC2)nc1N1CC2(CCc3sc(N)c(C#N)c32)C1 [Compound 61, 2-amino-1′-[6-[(1R,5S)-8-amino-3-azabicyclo[3.2.1]octan-3-yl]-5-cyano-2-[[1-(morpholinomethyl)cyclopropyl]methoxy]pyrimidin-4-yl]spiro[5,6-dihydrocyclopenta[b]thiophene-4,3′-azetidine]-3-carbonitrile]
- IC50 [1]: 10 to 100 nM
- IC50 (KRAS G12D/RAF1): 100 to 1000 nM

SMILES: N#Cc1cnc(OCC2(CN3CCOCC3)CC2)nc1N1CC2(CCCc3sc(N)c(C#N)c32)C1 [Compound 63, 2-amino-1′-[5-cyano-2-[[1-(morpholinomethyl)cyclopropyl]methoxy]pyrimidin-4-yl]spiro[6,7-dihydro-5H-benzothiophene-4,3′-azetidine]-3-carbonitrile]
- IC50 [1]: 10 to 100 nM
- IC50 (KRAS G12D/RAF1): 10000 to 100000 nM

SMILES: N#Cc1c(N2C[C@H]3CC[C@@H](C2)N3)nc(OCC2(CN3CCOCC3)COC2)nc1N1CC2(CCc3sc(N)c(C#N)c32)C1 [Compound 64, 2-amino-1′-[5-cyano-2-[[3-(morpholinomethyl)oxetan-3-yl]methoxy]-6-[(1R,5S)-3,8-diazabicyclo[3.2.1]octan-3-yl]pyrimidin-4-yl]spiro[5,6-dihydrocyclopenta[b]thiophene-4,3′-azetidine]-3-carbonitrile]
- IC50 [1]: < 10 nM
- IC50 (KRAS G12D/RAF1): 1000 to 10000 nM

SMILES: N#Cc1cnc(OC[C@@]23CCCN2C[C@H](F)C3)nc1N1CC2(CCc3sc(N)c(C#N)c32)C1 [Compound 65, 2-amino-1′-[5-cyano-2-[[(2R,8S)-2-fluoro-1,2,3,5,6,7-hexahydropyrrolizin-8-yl]methoxy]pyrimidin-4-yl]spiro[5,6-dihydrocyclopenta[b]thiophene-4,3′-azetidine]-3-carbonitrile]
- IC50 [1]: 1000 to 20000 nM
- IC50 (KRAS G12D/RAF1): 10000 to 100000 nM

From patent US12145947B2, “Pyrimidine based modulators and uses thereof” (Quanta Therapeutics, Inc., priority 2022, dated 2024)
